The source of these data is the Kinase Knowledgebase extract (Sharma et al. 2016).

Test [1] addresses EGFR (human) (UniProt P00533).
Test [2] deals with ROCK2 (human) (UniProt O75116).
The target of test [3] is EGFR (UniProt P00533).
The target of test [4] is MAPK14 (human) (UniProt Q16539). Nature of the test: Enzyme Assay.
Test [5] has the same target. Nature of the test: Enzyme Assay. The source holds these as a separate data set.
The target in another test is EGFR (mouse) (UniProt P00533). Particulars: balb/mk cells.
Test [6] concerns the target ROCK2 (human) (UniProt O75116). Nature of the test: Enzyme Assay.
For test [7], the target named is ROCK2 (human) (UniProt O75116). Briefly: Enzyme Assay. This is another data set of the same source.
The target in test [8] is EGFR (human) (UniProt P00533). This is another data set of the same source.
Test [9] deals with MAPK14 (human) (UniProt Q16539). Nature of the test: p38 --- TNF Inhibition (PBMC cells).
The target is the same in test [10]. Nature of the test: p38 --- IL-1 Inhibition (PBMC cells).
Test [11] deals with MAPK14 (sprague-dawley rat). Briefly: p38-mediated TNF-alpha Inhibition (Sprauge-Dawley Rats). Particulars: dose or concentration not given here.
In test [12] the target is EGFR (human) (UniProt P00533). This is another data set of the same source.
Test [13] addresses CDK2 (human) (UniProt P24941). Briefly: Enzyme Assay.
For test [14], the target named is CDK2 (human) (UniProt P24941). Briefly: Enzyme Assay. The source holds these as a separate data set.
In the next test the target is MAPK14 (UniProt Q16539). Nature of the test: p38-alpha 2 Inhibition.
For test [15], the target named is EGFR (UniProt P00533). The source holds these as a separate data set.
Test [16] concerns the target EGFR (human) (UniProt P00533). As to conditions: a431.
Test [17] addresses EGFR (human) (UniProt P00533). As to conditions: a549.
The target of test [18] is EGFR (human) (UniProt P00533). The source holds these as a separate data set.
The target in test [19] is EGFR (human) (UniProt P00533). Particulars: a431. This is another data set of the same source.
Test [20] concerns the target EGFR (UniProt P00533). This is another data set of the same source.

Where “and” joins values, the source holds several entries; their conditions need not be identical. Equal values may be shown once.

EGFR, sequence (P00533 whole entry, looked up): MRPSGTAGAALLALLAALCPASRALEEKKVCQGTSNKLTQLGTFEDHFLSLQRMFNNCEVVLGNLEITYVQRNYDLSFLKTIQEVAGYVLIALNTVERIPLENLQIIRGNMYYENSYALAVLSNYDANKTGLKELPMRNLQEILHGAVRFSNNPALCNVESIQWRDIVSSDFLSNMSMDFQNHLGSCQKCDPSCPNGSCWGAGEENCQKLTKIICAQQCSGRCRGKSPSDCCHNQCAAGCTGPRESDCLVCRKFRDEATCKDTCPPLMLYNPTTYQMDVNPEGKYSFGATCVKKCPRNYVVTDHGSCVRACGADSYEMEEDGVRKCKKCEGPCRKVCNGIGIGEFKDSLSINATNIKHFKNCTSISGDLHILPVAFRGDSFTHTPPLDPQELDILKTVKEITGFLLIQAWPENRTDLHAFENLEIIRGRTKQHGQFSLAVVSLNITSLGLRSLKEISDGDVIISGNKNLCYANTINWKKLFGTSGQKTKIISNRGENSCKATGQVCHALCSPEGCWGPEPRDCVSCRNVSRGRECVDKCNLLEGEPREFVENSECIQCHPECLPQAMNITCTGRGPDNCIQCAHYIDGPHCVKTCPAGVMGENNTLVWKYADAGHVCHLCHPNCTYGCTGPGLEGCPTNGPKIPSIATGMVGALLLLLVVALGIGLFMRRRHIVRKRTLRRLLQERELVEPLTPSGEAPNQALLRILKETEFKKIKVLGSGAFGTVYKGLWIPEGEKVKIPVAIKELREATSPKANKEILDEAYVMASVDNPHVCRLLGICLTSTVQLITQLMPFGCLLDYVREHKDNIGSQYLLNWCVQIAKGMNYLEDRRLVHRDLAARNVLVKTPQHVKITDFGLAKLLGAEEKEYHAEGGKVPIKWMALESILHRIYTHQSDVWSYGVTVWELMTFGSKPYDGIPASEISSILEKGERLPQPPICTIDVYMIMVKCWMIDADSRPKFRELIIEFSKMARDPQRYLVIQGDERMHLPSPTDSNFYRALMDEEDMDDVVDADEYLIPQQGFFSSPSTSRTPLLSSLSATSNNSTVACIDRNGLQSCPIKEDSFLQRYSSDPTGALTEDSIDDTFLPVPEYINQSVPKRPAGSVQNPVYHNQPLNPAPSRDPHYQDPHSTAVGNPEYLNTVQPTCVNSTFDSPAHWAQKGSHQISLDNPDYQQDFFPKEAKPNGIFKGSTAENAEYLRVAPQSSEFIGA
EGFR (human), sequence (P00533 whole entry, looked up): as above
MAPK14 (human), sequence (Q16539 whole entry, looked up): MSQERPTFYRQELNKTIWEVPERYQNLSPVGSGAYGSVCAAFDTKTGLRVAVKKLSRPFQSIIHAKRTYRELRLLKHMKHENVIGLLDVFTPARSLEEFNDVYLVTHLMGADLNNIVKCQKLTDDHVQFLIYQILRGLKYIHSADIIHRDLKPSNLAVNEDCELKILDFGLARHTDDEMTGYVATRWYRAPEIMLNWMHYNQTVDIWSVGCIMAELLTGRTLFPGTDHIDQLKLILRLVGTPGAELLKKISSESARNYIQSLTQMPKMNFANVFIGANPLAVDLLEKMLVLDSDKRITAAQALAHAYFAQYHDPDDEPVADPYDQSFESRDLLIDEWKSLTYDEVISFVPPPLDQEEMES
ROCK2 (human), sequence (O75116 whole entry, looked up): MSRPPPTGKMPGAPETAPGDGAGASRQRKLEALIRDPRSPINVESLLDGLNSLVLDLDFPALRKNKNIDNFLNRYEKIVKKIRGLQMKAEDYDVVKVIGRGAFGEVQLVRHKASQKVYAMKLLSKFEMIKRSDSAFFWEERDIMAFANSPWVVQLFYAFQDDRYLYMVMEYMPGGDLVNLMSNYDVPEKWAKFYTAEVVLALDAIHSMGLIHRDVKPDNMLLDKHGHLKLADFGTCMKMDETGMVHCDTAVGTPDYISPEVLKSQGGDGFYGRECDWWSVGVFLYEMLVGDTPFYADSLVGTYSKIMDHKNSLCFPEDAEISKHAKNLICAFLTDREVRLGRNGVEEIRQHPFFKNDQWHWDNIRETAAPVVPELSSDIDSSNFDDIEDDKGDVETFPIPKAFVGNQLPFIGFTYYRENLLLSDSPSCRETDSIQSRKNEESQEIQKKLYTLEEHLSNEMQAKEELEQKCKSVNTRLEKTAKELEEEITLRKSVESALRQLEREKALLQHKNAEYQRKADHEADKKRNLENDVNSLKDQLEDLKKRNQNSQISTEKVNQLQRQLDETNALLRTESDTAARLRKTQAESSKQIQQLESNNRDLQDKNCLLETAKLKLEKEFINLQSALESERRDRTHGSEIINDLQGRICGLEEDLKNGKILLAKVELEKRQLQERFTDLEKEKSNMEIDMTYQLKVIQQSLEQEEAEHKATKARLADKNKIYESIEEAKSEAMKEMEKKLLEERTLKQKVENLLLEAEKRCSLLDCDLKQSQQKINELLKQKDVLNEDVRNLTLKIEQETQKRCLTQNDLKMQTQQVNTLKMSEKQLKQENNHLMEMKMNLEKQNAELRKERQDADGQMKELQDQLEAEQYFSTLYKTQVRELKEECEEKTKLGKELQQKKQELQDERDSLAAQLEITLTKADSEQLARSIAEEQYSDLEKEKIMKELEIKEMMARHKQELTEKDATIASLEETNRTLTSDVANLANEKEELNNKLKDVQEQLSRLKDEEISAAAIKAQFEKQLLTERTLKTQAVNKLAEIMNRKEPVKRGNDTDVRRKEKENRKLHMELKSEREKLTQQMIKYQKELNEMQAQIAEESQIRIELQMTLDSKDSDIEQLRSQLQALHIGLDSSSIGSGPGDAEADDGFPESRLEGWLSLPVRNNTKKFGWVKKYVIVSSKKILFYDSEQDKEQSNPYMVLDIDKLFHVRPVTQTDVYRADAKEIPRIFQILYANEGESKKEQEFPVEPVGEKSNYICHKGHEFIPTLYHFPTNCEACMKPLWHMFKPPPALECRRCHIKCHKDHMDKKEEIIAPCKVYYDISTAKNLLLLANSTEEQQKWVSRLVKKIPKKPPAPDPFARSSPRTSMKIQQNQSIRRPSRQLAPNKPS
MAPK14, sequence (Q16539 whole entry, looked up): as the sequence (Q16539 whole entry, looked up) above

By IC50 is commonly meant the point on the concentration scale where inhibition reaches its midpoint. `Nc1nc(Nc2cccc(Cl)c2)c2c(n1)[nH]c1ccccc12`: the IC50 on EGFR (human) [1] was found to be 0.006 µM.

Turning to `O=C(O)C[C@@H](NC(=O)c1ccc2c(c1)OCc1cnccc1-2)c1ccccc1`, the IC50 against ROCK2 (human) [2] stood at 0.516 µM.

`COc1cc2ncnc(Nc3ccc(F)c(Cl)c3)c2cc1OCCN1CCN(C)CC1` returned an IC50 on EGFR [3] of 0.01 µM.

`Cc1cccc(COc2nc(C)n(-c3cc(-c4ccnc(C(C)(C)O)n4)ccc3C)c(=O)c2Cl)n1`: the IC50 at MAPK14 (human) [4] is > 30 µM and 3.3 µM; against MAPK14 (human) [5], 0.184 µM.

Take `COc1cccc([C@@H](C)NC(=O)c2ccc3c(c2)oc2c(C)nccc23)c1`: the IC50 against ROCK2 (human) [2] came to 0.00266 µM.

`C[C@H](NC(=O)c1ccc(S(=O)(=O)Oc2ccc(/C=C/[N+](=O)[O-])cc2)cc1)C(=O)N[C@@H](C)C(=O)NCCN`: the IC50 in the test with EGFR (mouse) is over 50 µM.

Regarding `NCc1ccc(C(=O)Nc2ccncc2F)cc1-c1cccc(C(=O)Nc2ccc(C(=O)O)cc2)c1`, the IC50 against ROCK2 (human) [6] worked out at 0.0041 µM; against ROCK2 (human) [7], 0.001 µM.

With `Oc1c(-c2ccc(F)cc2)c(-c2ccncc2)nn1-c1ccc(Cl)cc1`, the activity on EGFR (human) [8] (1.0 µM) came to 54%; at EGFR (human) [8] (10.0 µM), 6%; on MAPK14 (human) [5] (1.0 µM), 3%; on MAPK14 (human) [5] (10.0 µM) it was 0%.

As to `Cc1ccc(Sc2ccc3c(-c4c(Cl)cccc4Cl)c(=O)ncn3n2)cc1`, the IC50 against MAPK14 (human) [9] was determined as 0.87 µM; at MAPK14 (human) [10], 0.35 µM.

Regarding `Cc1ccc(-c2ccnc(C(C)(C)O)n2)cc1-n1c(C)nc(OCc2ncc(F)cc2F)c(Cl)c1=O`, the IC50 stood at 0.566 µM against MAPK14 (human) [4] and 0.04 µM against MAPK14 (human) [5].

In turn, `Nc1nc(Nc2ccccc2)c2c(n1)[nH]c1ccccc12` gave an IC50 at EGFR (human) [1] of 0.147 µM. That is a sub-micromolar value.

The term inhibition denotes the share of the control response that was lost under treatment. Molecule `CNCC#Cc1cccc(C(=O)c2cnn(-c3ccc(F)cc3)c2N)c1` showed an inhibition in test [11] of 86%.

For `CC(C)OC(=O)Cc1cccc(NC(=O)c2cccc(-c3cc(C(=O)Nc4ccncc4F)ccc3CN)c2)c1`, the IC50 on ROCK2 (human) [6] and at ROCK2 (human) [7] was under 0.001 µM throughout.

Regarding `CN(C/C=C/C(=O)Nc1cccc(-n2nc(-c3ccc(Cl)cc3)c3c(N)ncnc32)c1)C1CC1`, on EGFR (human) [12], the IC50 lay within 0.1 to 1 µM.

For `C=CC(=O)Nc1ccc(-n2nc(-c3ccc(Cl)c(Cl)c3)c3c(N)ncnc32)cc1`, the IC50 on EGFR (human) [12] is under 0.1 µM.

Regarding `CO[C@H]1[C@@H](OC)C[C@H](C)[C@@H](OC)C2=CC(=O)C=C(NC(=O)/C(C)=C/C=C/[C@H](OC)[C@H](OC(N)=O)/C(C)=C/[C@@H]1C)C2=O`, the activity worked out at 138% at CDK2 (human) [13] (1.0 µM), 83% on CDK2 (human) [13] (10.0 µM), 104% at CDK2 (human) [14] (1.0 µM) and 91% on CDK2 (human) [14] (10.0 µM).

`C[C@H](NC(=O)[C@H](C)NC(=O)c1ccc(S(=O)(=O)Oc2ccc(/C=C/[N+](=O)[O-])cc2)cc1)C(=O)O` returned an IC50 in the test with EGFR (mouse) of over 50 µM.

As to `O=C(Nc1cc(C2[C@H]3C[C@@H]4C[C@@H](C[C@H]2C4)C3)no1)Nc1cccc(Cl)c1Cl` (stereo not given in full), the inhibition against MAPK14 (concentration not given here) was 9%.

As to `NC(=O)c1ccccc1NC(=O)Nc1ccc(Cl)c(Cl)c1`, at MAPK14, the IC50 came out at 0.1 µM.

As for `COc1cc2ncnc(Nc3ccc(F)c(Cl)c3)c2cc1OCCN1CCOCC1`, on EGFR [3], the IC50 was determined as 0.01 µM.

Molecule `COc1ccc(OC)c(COc2ccc(O)c(C(=O)O)c2)c1` showed an IC50 against EGFR [15] of over 100 µM.

At EGFR [15], `COC(=O)c1cc(OCc2cc(OC)ccc2OC)ccc1O` showed an IC50 of over 100 µM.

Regarding `C[C@H](NC(=O)c1ccc(S(=O)(=O)Oc2ccc(/C=C/[N+](=O)[O-])cc2)cc1)C(=O)N[C@@H](C)C(=O)OC(C)(C)C`, the IC50 against EGFR (human) [16] came to 37.5 µM.

Molecule `CNC(=O)c1ccc(S(=O)(=O)Oc2ccc(/C=C/[N+](=O)[O-])cc2)cc1` had an IC50 on EGFR (human) [16] of 37.5 µM.

For `Cc1cccc(Sc2ccc3c(-c4c(Cl)cccc4Cl)c(=O)ncn3n2)c1`, the values for the IC50 against MAPK14 (human) [9] and against MAPK14 (human) [10] were 0.28 µM and 0.21 µM, respectively.

Consider `COc1cc(OC)c2c(=O)n(-c3cccc(C(=O)NC4CCCC4)c3)ccc2c1`, for which the IC50 at EGFR (human) [17] came to 18.6 µM; on EGFR (human) [18], 2.12 µM; against EGFR (human) [19], 15.3 µM.

For `CCn1cnc2c(Nc3cccc(Cl)c3)nc(N[C@@H]3CCCC[C@@H]3N)nc21`, the IC50 on EGFR [20] is over 10 µM.

Molecule `CCn1cnc2c(Nc3cccc(Cl)c3)nc(N[C@H]3CC[C@@H](N)CC3)nc21` came in with an IC50 against EGFR [20] of 5.3 µM. This lies in the single-digit micromolar range.

Take `COc1cc(O)c2c(=O)n(-c3cccc(C(=O)NC4CCCC4)c3)ccc2c1`: the figures for the IC50 against EGFR (human) [17], against EGFR (human) [18] and against EGFR (human) [19] were 14.2 µM, 1.38 µM and 2.25 µM, respectively.
